The record followed here is patent publication US8343539B2, “Compounds that bind α5β1 integrin and methods of use” (Regents of the University of Minnesota, priority 2006, dated 2013).

“Also recorded” adds a separate entry of the source. Where no end group is shown, it is not given here. (C16)2 = not defined here

Test [1] has as its system HUVECs. Kind of test: Fibronectin production staining (Example 2). Format: cell-based, human. The conditions noted are these: 12 hours. As to the method: Fibronectin production staining: Surface preparation, transfer, and cellular work were all done as described in the previous methods. Only surfaces incubated with cells for 12 hours were stained. The staining protocol, involving a primary antibody for secreted fibronectin (Chemicon), a FITC-conjugated secondary antibody (Chemicon), and the Image-iT LIVE plasma membrane and nuclear labeling kit (Molecular Probes), was done as previously described in Example 1. A single photon confocal microscope (Olympus FluoView FV1000) was used for imaging. Two slides per substrate were prepared each during 2 separate experiments and each slide was imaged 2-4 times. The final images chosen were all taken from one experiment for consistency, but were representative of the images obtained from both experiments.

The subject of the next test is CT26.WT cells. The experiment in a line: Blocking of liposome binding with free PR_b peptide-amphiphile (flow cytometry). In kind it is cell-based, mouse. The conditions noted are these: free peptide-amphiphile 200 μg/ml, 1 hr pre-incubation, 4° C. As to the method: Flow cytometry: CT26.WT confluent cell monolayers were trypsinized (0.25% Trypsin+0.1% EDTA) and resuspended in ice-cold FB (fluorescent buffer: phosphate buffered saline (PBS) supplemented with 0.02% sodium azide and 2.5% fetal bovine serum) containing liposomes at a lipid concentration of 250 μM and a cell concentration of 1 million/ml in 15 ml centrifuge tubes. Tubes were incubated at 4° C. or 37° C. over a rotary shaker for the specified duration of time. Cells were then pelleted and washed twice in FB. Flow cytometric analysis was carried out immediately. For peptide blocking experiments, the protocol specified above was used except cells were incubated with 200 μg/ml of free peptide-amphiphile in FB for one hour prior to incubating the cells with the liposomes. For integrin α5β1 expression studies, CT26.WT confluent cell monolayers were trypsinized (0.25% Trypsin+0.1% EDTA) and resuspended in ice-cold FB at a cell concentration of 1 million/ml in 15 ml centrifuge tubes. Tubes were incubated at 4° C. with primary antibody (anti-integrin α5β1) or goat isotype control (goat IgG) over a rotary shaker for 35 min. Cells were then pelleted and washed twice in FB and then incubated again with the secondary antibody (anti-goat IgG FITC conjugated) for 35 min. Finally, cells were pelleted and washed twice. Flow cytometric analysis was carried out immediately. […]
(In flow cytometry, cells or beads pass a laser one at a time.)

The next test deals with T1, integrin α5β1 (Homo sapiens, UniProt P05556+P08648).
T1 construct: endogenous in cells; host or cells: HUVEC (human umbilical vein endothelial cells)
The experiment in a line: Adhesion blocking with anti-integrin α5β1 antibody (JBS5). Format: cell-based. The conditions noted are these: 1 hour. How it is done:
Adhesion blocking experiments: Blocking experiments were done using mouse anti-human integrin […] (P1D6), β1 (P5D2), α5β1 (JBS5), and αvβ3 (LM609) monoclonal antibodies (Chemicon Int.). All surfaces were transferred to 24- or 12-well plates and pre-incubated in 0.1% BSA media as described above. HUVECs were prepared and counted as described in the cell adhesion protocol. Cells were blocked by mixing the cell suspension with the appropriate antibody in 0.1% BSA media, and incubating for 30 minutes at 37° C., 5% CO2 with constant agitation. Blocked cells were then released onto LB and FN surfaces and allowed to adhere for 1 hour at 37° C., 5% CO2. For all blocking experiments, cells were seeded at 249 cells/mm^2 (lower seeding density was used here to reduce the amount of antibodies needed to block cell adhesion) and a final antibody concentration in each well was 20 μg/ml. Following incubation, surfaces were washed, and adhered cells were quantified as described in the cell adhesion protocol.

Test [2] has as its system HUVECs. Kind of test: Actin cytoskeleton and focal adhesion staining. In kind it is cell-based, human. The conditions noted are these: 1-72 hours. How it is done: Actin cytoskeleton and focal adhesion staining: Surface transferring, cell seeding, incubation, and fixing were done as described above. Staining for the actin cytoskeleton, focal adhesions, and nucleus of attached cells was done using the Actin Cytoskeleton and Focal Adhesion Staining Kit following the manufacturer's protocol (Chemicon Int.) and using 1:350 dilution for anti-vinculin antibody, 1:200 for the secondary antibody, approximately 1:1000 dilution (equivalent to 1 unit/surface) for TRITC-conjugated phalloidin and 1:1000 for DAPI. After washing, surfaces were mounted onto glass slides and stored at 4° C. protected from light. A confocal microscope (BIORAD Multiphoton Confocal 1024) was used for imaging.

T1 sequence (P08648 42-894 limits assumed): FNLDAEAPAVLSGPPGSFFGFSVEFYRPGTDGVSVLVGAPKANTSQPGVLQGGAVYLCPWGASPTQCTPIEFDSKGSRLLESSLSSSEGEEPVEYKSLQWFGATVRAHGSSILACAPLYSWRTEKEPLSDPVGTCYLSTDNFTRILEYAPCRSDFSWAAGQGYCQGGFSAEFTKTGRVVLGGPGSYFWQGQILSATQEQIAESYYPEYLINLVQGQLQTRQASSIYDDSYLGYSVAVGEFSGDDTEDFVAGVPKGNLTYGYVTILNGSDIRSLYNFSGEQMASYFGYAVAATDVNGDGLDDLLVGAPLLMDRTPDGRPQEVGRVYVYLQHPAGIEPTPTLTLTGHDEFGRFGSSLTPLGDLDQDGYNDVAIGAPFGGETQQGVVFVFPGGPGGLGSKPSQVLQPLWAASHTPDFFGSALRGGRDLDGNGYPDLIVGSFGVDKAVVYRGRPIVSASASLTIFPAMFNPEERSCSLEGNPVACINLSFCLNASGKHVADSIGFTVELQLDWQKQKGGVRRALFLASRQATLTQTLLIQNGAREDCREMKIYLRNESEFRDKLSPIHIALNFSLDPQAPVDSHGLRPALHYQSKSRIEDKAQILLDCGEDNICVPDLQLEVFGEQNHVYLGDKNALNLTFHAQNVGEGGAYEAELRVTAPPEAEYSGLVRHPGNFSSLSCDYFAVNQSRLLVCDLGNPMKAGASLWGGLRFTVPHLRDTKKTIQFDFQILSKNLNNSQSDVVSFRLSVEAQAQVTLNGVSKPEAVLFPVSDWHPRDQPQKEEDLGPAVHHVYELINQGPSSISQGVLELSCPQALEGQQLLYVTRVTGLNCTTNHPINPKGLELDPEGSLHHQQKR
T1 sequence (P08648 895-1049 partner limits assumed): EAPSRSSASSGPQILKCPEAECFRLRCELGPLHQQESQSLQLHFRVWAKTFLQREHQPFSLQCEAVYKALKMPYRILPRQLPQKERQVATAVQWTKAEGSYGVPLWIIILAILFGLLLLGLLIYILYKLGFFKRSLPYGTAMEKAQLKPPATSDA
T1 sequence (P05556 21-798): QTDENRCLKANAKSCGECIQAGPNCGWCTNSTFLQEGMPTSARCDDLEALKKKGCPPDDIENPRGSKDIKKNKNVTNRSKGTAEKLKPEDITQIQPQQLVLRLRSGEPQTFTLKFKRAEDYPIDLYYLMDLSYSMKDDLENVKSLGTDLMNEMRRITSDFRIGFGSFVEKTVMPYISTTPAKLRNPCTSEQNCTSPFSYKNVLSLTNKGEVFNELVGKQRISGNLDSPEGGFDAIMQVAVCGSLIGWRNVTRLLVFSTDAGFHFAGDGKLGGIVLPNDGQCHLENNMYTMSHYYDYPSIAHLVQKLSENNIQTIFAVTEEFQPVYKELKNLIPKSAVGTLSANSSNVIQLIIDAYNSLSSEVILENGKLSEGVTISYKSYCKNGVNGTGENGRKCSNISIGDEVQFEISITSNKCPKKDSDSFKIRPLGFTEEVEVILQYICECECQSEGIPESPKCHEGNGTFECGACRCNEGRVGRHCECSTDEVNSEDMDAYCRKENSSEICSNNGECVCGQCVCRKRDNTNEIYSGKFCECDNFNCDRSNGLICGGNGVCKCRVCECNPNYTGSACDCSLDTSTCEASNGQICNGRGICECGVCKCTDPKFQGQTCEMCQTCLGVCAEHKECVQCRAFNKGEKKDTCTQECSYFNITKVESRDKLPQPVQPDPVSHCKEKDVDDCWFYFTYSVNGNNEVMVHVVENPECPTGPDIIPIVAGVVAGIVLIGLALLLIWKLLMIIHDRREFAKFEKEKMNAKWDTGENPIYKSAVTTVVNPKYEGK

With “(C16)2-Glu-C2-KSSPHSRNSGSGSGSGSGRGDSP ({(C16)2-Glu-C2}-KSSPHSRNSGSGSGSGSGRGDSP; not fully specified; reading uncertain) [PR_b]”, in the test with HUVECs [1], the “Fibronectin (ECM) production by adhered HUVECs” value is given as “good fibronectin production”. The “Blocking of binding of PR_b and GRGDSP targeted stealth liposomes (low PEG2000) to CT26.WT cells” value in the test on CT26.WT cells is reported as “completely blocks the binding; also recorded: completely blocked”. Moreover, the “reduction in cell adhesion compared to adhesion of non-blocked cells” value in the test with integrin α5β1 (anti-α5β1 antibody 20 μg/ml, HUVECs 249 cells/mm^2) was found to be 77.55±1.50%. In the test with integrin α5β1 (antibody blocking), the “Integrin mediating HUVEC adhesion to the surface” value is recorded as “α5β1-mediated; also recorded: specific for α5β1 integrins”. In addition, in the test with HUVECs [2], the “Actin stress fibers and focal contacts” value is “displayed actin stress fibers and focal contacts”; the “Cytoskeletal organization and focal adhesion compared to FN” value was “better-developed cytoskeletal structure compared to FN; also recorded: stronger cytoskeletal organization and focal adhesion formation”.
